From US7590493B2, “Methods for determining hepatotoxins” (priority 2000, dated 2009)

Tests used:
[1] = single dose, within 24 hours (Fracasso 1990); cited from earlier work
[2] = Inventors' rat studies: liver pathology and clinical chemistry
[3] = amitriptyline 600 mg/kg oral, PB 80 mg/kg IP, cited from earlier work; for microsomal phosphatidylcholine content: 6-24 hr
[4] = single oral dose 600 mg/kg, cited from earlier work
[5] = test system: c-fos, c-jun, c-myc; settings: post dose, acute administration; cited from earlier work
[6] = cited from earlier work
[7] = test system: human hepatoma cell lines; settings: in vitro; cited from earlier work
[8] = test system: primary rat hepatocytes; settings: in vitro; cited from earlier work
[9] = cited from earlier work; remark: listed apart in the source
[10] = cited from earlier work; remark: listed apart in the source
[11] = in vivo; cited from earlier work
[12] = 24 hours, cited from earlier work

Which “liver and renal microsomal enzymes, including CYP450” value [1] does the source give for `COc1ccc2c(c1)c(CC(=O)O)c(C)n2C(=O)c1ccc(Cl)cc1` [indomethacin] here?
Its value is “reduce”.

Which hepatocellular hypertrophy ([2]; rat) does the source give for `CC(O)(CS(=O)(=O)c1ccc(F)cc1)C(=O)Nc1ccc(C#N)c(C(F)(F)F)c1` (stereo not shown) [Bicalutamide] here?
Its hepatocellular hypertrophy is “minor degree”.

What about the “mitosis rates / mitotic activity” value ([2]; rat liver) of the same compound?
Its value is “increase”.

For `CCOC(=O)C(C)(C)Oc1ccc(Cl)cc1` [Clofibrate], which hepatocellular alterations ([2]; following early AST/ALT increases) is on record?
The hepatocellular alterations was “dose-dependent”.

What about the “mitosis rates / mitotic activity” value ([2]; rat liver) of the same compound?
The value was “increased”.

And the “AST and ALT levels” value ([2]; rat, in vivo)?
Its value is “early increases”.

What does the source list for `CN(C)CCC=C1c2ccccc2CCc2ccccc21` [amitriptyline]?
microsomal phosphatidylcholine content [3]: increase; levels of GAT and PCT [3]: slightly affected; levels of PPH and CPT [3]: significantly altered; aminolevulinic acid (ALA) activity ([4]; 12 and 24 hours): marked increase; cytochrome P450 (CYP450) content [4]: remained the same; total heme and cytochrome b5 levels [4]: increased

Which microsomal phosphatidylcholine content [3] does the source give for `CCC1(c2ccccc2)C(=O)NC(=O)NC1=O` [PB, phenobarbital] here?
The microsomal phosphatidylcholine content was “increase”.

With `ClC(Cl)(Cl)Cl` [CCl4, carbon tetrachloride] as the compound, how does the “time of peak hepatic mRNA level, c-fos” value [5] read?
The value was 1 to 2 h.

And the “time of peak hepatic mRNA level, c-jun” value [5]?
The value was 3 h.

And the “time of peak hepatic mRNA level, c-myc” value [5]?
Its value is 1 h.

And the “ALT and AST peak levels, increase” value ([6]; 0.1, 1, 2, 3, 4 mL/kg ip, […] po, within 48 hours post dose)?
Its value is 5-10 fold.

And the “serum α-glutathione s-transferase (α-GST) levels” value ([6]; 25 μL/kg po, as early as 2 hours)?
The value was “Significant increases”.

Which results are given for `O=C(CCN1CCN2CCCC2C1)N1c2ccccc2Sc2ccc(Cl)cc21` (stereo not shown) [AY-25329]?
mitosis rates / mitotic activity ([2]; rat liver): increased; glycogen levels ([2]; rat liver, all rats examined): decreased

For `Nc1c2c(nc3ccccc13)CCCC2` [tacrine], which cytotoxicity [7] is on record?
The cytotoxicity was “displayed cytotoxicity”.

And the cytotoxicity [8]?
The cytotoxicity was “displayed cytotoxicity”.

For `CC(=O)O[C@]1(C(C)=O)CC[C@H]2[C@@H]3C=C(Cl)C4=CC(=O)[C@@H]5C[C@@H]5[C@]4(C)[C@H]3CC[C@@]21C` [CPA, cyproterone acetate], which “occurrence of S phase cells” value ([9]; rat liver) is on record?
The value was “increased”.

And the DNA repair activity ([9]; single oral dose 100 mg CPA/kg body weight, after 16 hours)?
The DNA repair activity was “continuous DNA repair activity was observed”.

For `C#C[C@]1(O)CC[C@H]2[C@@H]3CCc4cc(O)ccc4[C@H]3CC[C@@]21C` [17α-ethinylestradiol], which bile flow ([10]; after 3 days of drug administration) is on record?
Its bile flow is “decrease”.

And the “plasma cholesterol and plasma triglyceride levels” value ([10]; rat, in vivo)?
Its value is “decrease”.

And the “plasma levels of bilirubin, bile salts, AST and ALT” value ([10]; rat, in vivo)?
The value was “not changed”.

For `S=C=Nc1cccc2ccccc12` [ANIT, alpha-naphthylisothiocyante], which “liver weight vs control-treated” value [11] is on record?
Its value is “significantly heavier”.

What about the “serum ALT, gamma-glutamyl transpeptidase, total bilirubin, lipid peroxide and total bile acids” value [11] of the same compound?
Its value is “significant increases”.

And the “levels of total bilirubin, alkaline phosphatase, serum glutamic oxaloacetic transaminase and serum glutamic pyruvic transaminase” value ([12]; 80 mg/kg oral in olive oil)?
Its value is “significantly increased”.

And the total bile flow ([12]; 80 mg/kg oral)?
Its total bile flow is “reduced”.
